According to US10597388B2, “Pyridazinone herbicides” (FMC CORPORATION, priority 2014, dated 2020):

Columns and labels:
Format in all cases: in vivo
[1] = test system: oat, wild (wild oat, Avena fatua); assay: Test C greenhouse herbicide test, postemergence
In short: (§1)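 Visual injury scores (0–100, where 100 means complete control) were assigned 13 to 15 d after postemergence application, by comparison with untreated plants. Treated seedlings stood 2 to 18 cm tall, at the 1- to 4-leaf stage.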

[2] = test system: chickweed (common chickweed, Stellaria media); assay: Test C greenhouse herbicide test, postemergence
In short: as §1

[3] = test system: kochia (Kochia scoparia); assay: Test C greenhouse herbicide test, postemergence
In short: as §1

[4] = test system: barnyardgrass (Echinochloa crus-galli); assay: Test B flooded paddy test; conditions: 250 g ai/ha, Flood; visual rating on scale of 0 to 100 where 0 is no effect and 100 is complete control; 13 to 15 d after treatment
In short: (§2)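 Ratings use a 0-100 visual scale, where 100 is complete control, and compare treated plants with controls after 13 to 15 d of greenhouse growth. Compound went straight into paddy water kept 3 cm over the soil surface, applied to seedlings at the 2-leaf stage.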

[5] = test system: ducksalad (Heteranthera limosa); assay: Test B flooded paddy test; conditions: 250 g ai/ha, Flood; visual rating on scale of 0 to 100 where 0 is no effect and 100 is complete control; 13 to 15 d after treatment
In short: as §2

[6] = test system: rice (Oryza sativa); assay: Test B flooded paddy test; conditions: 250 g ai/ha, Flood; visual rating on scale of 0 to 100 where 0 is no effect and 100 is complete control; 13 to 15 d after treatment
In short: as §2

[7] = test system: sedge, umbrella (small-flower umbrella sedge, Cyperus difformis); assay: Test B flooded paddy test; conditions: 250 g ai/ha, Flood; visual rating on scale of 0 to 100 where 0 is no effect and 100 is complete control; 13 to 15 d after treatment
In short: as §2

[8] = test system: corn (Zea mays); assay: Test A greenhouse herbicide test, pre- and postemergence; conditions: Postemergence; for Corn plant response rating: 0 to 100 scale, 0 is no effect, 100 is complete control; for Plant response rating, Corn: 125 g ai/ha, 0 to 100 scale where 0 is no effect and 100 is complete control
In short: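 Visual injury ratings, 0 (no effect) to 100 (complete control), versus untreated plants after roughly 10 d in a greenhouse. Compounds, formulated in a surfactant-containing non-phytotoxic solvent, were sprayed on loam–sand soil after sowing (pre) or on one- to two-leaf plants 2–10 cm tall (post).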

[9] = Postemergence, 31 g ai/ha, 0 to 100 scale (0 no effect, 100 complete control)
[10] = Postemergence, 125 g ai/ha, scale 0 to 100, 0 is no effect, 100 is complete control
[11] = Postemergence, 250 g ai/ha, scale 0 to 100, 0 no effect, 100 complete control, 13 to 15 d
[12] = postemergence, 62 g ai/ha, scale 0 to 100, 0 no effect, 100 complete control

| Structure (SMILES) | Oat, Wild plant response rating [1, 9] | Plant response rating, Oat, Wild [1, 10] | Plant response rating, Oat, Wild [1, 11] | Oat, Wild plant response rating [1, 12] | Chickweed plant response rating [2, 9] | Plant response rating, Chickweed [2, 10] | Plant response rating, Chickweed [2, 11] | Chickweed plant response rating [2, 12] | Kochia plant response rating [3, 9] | Plant response rating, Kochia [3, 10] | Plant response rating, Kochia [3, 11] | Kochia plant response rating [3, 12] | Plant response rating, Barnyardgrass [4] | Plant response rating, Ducksalad [5] | Plant response rating, Rice [6] | Plant response rating, Sedge, Umbrella [7] | Corn plant response rating ([8]; 1000 g ai/ha) | Plant response rating, Corn [8] | Corn plant response rating ([8]; 500 g ai/ha) |
| --- | --- | --- | --- | --- | --- | --- | --- | --- | --- | --- | --- | --- | --- | --- | --- | --- | --- | --- | --- |
| Cc1ccc2ccc(C)c(-c3c(O)c(C)nn(C)c3=O)c2c1 [Compound 60] | 85 | 95 | 95 | 95 | 90 | 95 | 98 | 95 | 90 | 100 | 100 | 90 | 35 | 20 | 35 | 30 | 50 |  |  |
| Cc1nn(C)c(=O)c(-c2c(C)sc3ccccc23)c1O [Compound 65] | 25 | 50 | 70 | 35 | 55 | 90 | 90 | 90 | 90 | 90 | 100 | 90 | 0 | 0 | 0 | 0 |  | 0 | 0 |
| Cc1cc(C)c2sc(C)c(-c3c(OC(=O)OC(C)C)c(C)nn(C)c3=O)c2c1 [Compound 67] | 80 | 90 | 100 | 85 | 90 | 95 | 95 | 95 | 0 | 35 | 80 | 30 | 0 | 0 | 0 | 0 |  | 0 | 0 |
| CCOC(=O)Oc1c(C)nn(C)c(=O)c1-c1c(C)ccc2ccccc12 [Compound 73] | 75 | 95 | 95 | 90 | 90 | 95 | 95 | 90 | 90 | 90 | 100 | 90 | 0 | 0 | 0 | 0 |  | 20 | 60 |
| COC(=O)Oc1c(C)nn(C)c(=O)c1-c1c(C)sc2c(C)cc(C)cc12 [Compound 81] |  | 95 | 95 | 90 | 90 | 95 | 95 | 90 |  | 80 | 80 | 75 | 60 | 70 | 60 | 80 |  | 0 | 0 |
